Data from US7375135B2, “Fatty acid derivatives; preparation and uses thereof” (Genfit, priority 2001, dated 2008).

Experiments:
[1] = Plasma cholesterol and triglycerides in Zucker rats; type: in vivo, rat
Text: (§1) Male C57BL/6 mice (Charles River, L'Arbresle, France) aged 6 weeks at the start of the experiments were randomly divided into groups of 6 animals such that body weight distribution was uniform. Mice were given a low-fat diet (UAR AO4), a high-fat diet (29% (m/m) coconut oil) or the same enriched diet supplemented with the test compounds. Obese male Zucker rats (fa/fa) or non obese rats (fa/+) aged 5 or 21 weeks (Charles River, L'Arbresle, France) were divided into groups of 8 animals selected such that the distribution of plasma cholesterol and triglyceride levels was uniform, and maintained on a standard diet. Animals were housed in a 12 hour light/dark cycle at a constant temperature of 20° C.±3° C. Animals had access to food and water ad libitum. Food intake and weight increase were recorded. The test compounds were suspended in carboxymethylcellulose and administered by gastric lavage at the indicated doses, once a day for 15 days. At the end of treatment, some animals underwent a glucose tolerance test as described hereinbelow. At the end of the experiment the other animals were weighed and sacrificed under anesthesia after a 5 hour fast. Blood was collected on EDTA. Plasma was prepared by centrifugation at 3000 rpm for 20 minutes. Liver samples were removed and stored frozen in liquid nitrogen for subsequent analysis.
Plasma lipid concentrations (total cholesterol and triglycerides) were determined by a colorimetric assay (Bio-Mérieux, Marcy l'Etoile, France) according to the supplier's instructions.

[2] = Plasma insulin and glucose balance in Zucker rats; type: in vivo, rat; details: 300 mg/kg/d
Text: as §1
Blood glucose was determined by a colorimetric enzymatic assay (Sigma Aldrich, St Louis, Mo., USA).
Insulinemia was assayed on serum or plasma collected on EDTA.

PPARα = PPARα activation in vitro in HepG2 cells (Gal4 DNA binding domain / PPARα ligand binding domain chimera); type: cell-based; details: dose-dependent, FIG. 11
Experimental: Plasmids pG5TkpGL3, pGal4-hPPARα, pGal4-hPPARγ and pGal4-φ have been described previously (Raspé et al., J. Lipid Res. 40, 2099-2110, 1999). The pGal4-mPPARα and pGal4-hPPARδ constructs were obtained by cloning PCR-amplified DNA fragments corresponding to the DEF domains of the mouse PPARα and human PPARδ nuclear receptors into the pGal4-φ vector.
HepG2 and RK13 cells were from ECACC (Porton Down, UK) and were grown in DMEM medium supplemented with 10% (VN) fetal calf serum, 100 U/ml penicillin (Gibco, Paisley, UK) and 2 mM L-glutamine (Gibco, Paisley, UK). The culture medium was replaced every two days. Cells were kept at 37° C. in a humidified 5% CO2/95% air atmosphere.
HepG2 and RK13 cells seeded in 24-well culture dishes at a rate of 10^5 cells/well for HepG2 cells and 5×10^4 cells/well for RK13 cells were transfected for 2 hours with the reporter plasmid pG5TkpGL3 (10 ng/well), the expression vectors pGal4-φ, pGal4-mPPARα, pGal4-hPPARα, pGal4-hPPARγ, pGal4-hPPARδ (10 ng/well) and the transfection efficiency control vector pRL-null (Promega Madison, Wis., USA) (20 ng/well) according to the protocol previously described (Raspé et al., J. Lipid Res. 40, 2099-2110, 1999) and incubated for 36 hours with the test compounds. […]

[3] = tested on: hepatic expression of ACO, CPT-I, CPT-II, Apo AI, Apo CIII genes; test: Hepatic gene expression (RT-PCR) in treated Sprague-Dawley rats; type: in vivo, rat; details: 300 mg/kg/d
Experimental: (§2) Sprague-Dawley or Wistar rats weighing 200 to 230 g (Charles River, L'Arbresle, France) were housed in a 12-hour light/dark cycle at a constant temperature of 20±3° C. After a 1-week acclimatization period, rats were weighed and distributed into groups of 8 animals selected such that the distribution of plasma cholesterol and triglyceride levels was uniform. The test compounds were suspended in carboxymethylcellulose and administered by gastric lavage at the indicated doses, once a day for 15 days. Animals had access to food and water ad libitum. At the end of the experiments, animals were weighed and sacrificed under anesthesia after a 5-hour fast. Blood was collected on EDTA. Plasma was isolated by centrifugation at 3000 rpm for 20 minutes. Liver samples were removed and stored frozen in liquid nitrogen until further analysis.
(§3) Total RNA was isolated from the liver fragments by extraction with a mixture of guanidine thiocyanate/phenol acid/chloroform as previously described (Raspé et al., J. Lipid Res. 40, 2099-2110, 1999). Messenger RNA was quantified by semi-quantitative or quantitative RT-PCR with the Light Cycler Fast Start DNA Master Sybr Green I kit (Hoffman-La Roche, Basel, Switzerland) on a Light Cycler System (Hoffman-La Roche, Basel, Switzerland). Primer pairs specific for the ACO, Apo CIII, Apo AI, CPT-I and CPT-II genes were used as probes. Primer pairs specific for the 36B4, β-actin and GAPDH genes were used as control probes (see table I).

[4] = Plasma lipids and their distribution in lipoparticles in Sprague-Dawley rats; type: in vivo, rat; details: 300 mg/kg/d
Experimental: as §2
(§4) Lipid concentrations in plasma (total cholesterol and free cholesterol, triglycerides and phospholipids) were determined by a colorimetric assay (Bio-Mérieux, Marcy I'Etoile, France) according to the supplier's instructions. Plasma concentrations of apolipoproteins AII, AI and CIII were determined as previously described (Raspé et al., J. Lipid Res. 40, 2099-2110, 1999, Asset G et al., Lipids, 34, 39-44, 1999).
To separate the lipoproteins according to size, 300 μl of plasma were loaded on a Sepharose 6HR 10/30 column (Pharmacia, Uppsala, Sweden) and eluted at a constant flow rate (0.2 ml/minute) in PBS (pH 7.2). Optical density of the eluent was recorded at 280 nm. 0.3 ml fractions were collected. Lipid concentrations in the different fractions were determined by a colorimetric assay (Bio-Mérieux, Marcy I'Etoile, France) according to the supplier's instructions.

[5] = Glucose tolerance test in Zucker rats; type: in vivo, rat; details: 300 mg/kg/d
Text: as §1
Insulinemia was assayed on serum or plasma collected on EDTA. […]

ABCA1 gene expression = test: ABCA1 and LXRα gene expression in human macrophages; type: cell-based; details: compound solubilized according to example 6, dose-dependent, FIG. 12
Experimental: THP-1 monocytes (ATCC, Rockville, Md., USA) were placed in 6-well culture dishes in the presence of PMA (phorbol myristate acetate) and fetal calf serum and incubated at 37° C. for 48 hours to allow them to differentiate to macrophages.
To obtain primary macrophages, mononuclear cells were isolated from human blood as previously described (Chinetti et al. Nat. Medecine 7(1), 53-58, 2001), placed in 6-well culture dishes and grown for 10 days in the presence of human serum to enable adherence and differentiation of the primary monocytes to macrophages.
Treatment with the different compounds was carried out for 48 hours in medium without human or fetal calf serum but supplemented with 1% Nutridoma HU serum (Boehringer).
Total RNA was extracted from treated macrophages with the mini RNeasy kit (Qiagen, Hilden, Germany) according to the supplier's instructions, assayed by spectrometry and quantified by quantitative RT-PCR with the Light Cycler Fast DNA Master Green I kit (Hoffman-La Riche, Basel, Switzerland) on a Light Cycler System (Hoffman-La Riche, Basel, Switzerland). Primer pairs specific for the ABCA1 and LXRα genes were used as probes.

[6] = Plasma cholesterol and triglycerides in Wistar rats; type: in vivo, rat; details: 300 mg/kg/d, after 14 days of treatment
Experimental: as §2, with “The test compounds were suspended in carboxymethylcellulose and administered by gastric lavage at the indicated doses, once a day for 15 days.” left out
as §4

[7] = tested on: hepatic expression of the ACO gene; test: Hepatic ACO gene expression in treated Wistar rats; type: in vivo, rat; details: 300 mg/kg/d, FIG. 9C
Experimental: as §2
as §3, with “Primer pairs specific for the 36B4, β-actin and GAPDH genes were used as control probes (see table I).” left out

CCCCCCCCCCCCCCSCC(=O)OCC(COC(=O)CSCCCCCCCCCCCCCC)OC(=O)CSCCCCCCCCCCCCCC [Example 4a, 1,2,3-tritetradecylthioacetylglycerol]
total plasma cholesterol (gradual increase versus control group) ([1]; 300 mg/kg/d, FIG. 6A): said increase was slower | plasma triglycerides (gradual increase versus control group) ([1]; 300 mg/kg/d, FIG. 6B): said increase was markedly slower | plasma triglyceride levels, dose-effect relation ([1]; doses of 0 to 600 mg/kg/d, FIG. 10): gradual dose-dependent decrease in triglyceride levels | plasma glucose levels ([2]; FIG. 7): glucose levels were equivalent in the two groups | insulin sensitivity ([2]; concluded from insulin and glucose levels): increased insulin sensitivity | plasma insulin levels (gradual compensatory increase versus control group) ([2]; especially after 14 days, FIG. 7): said increase was slower | PPARα activation in vitro (PPARα): very strong activation of the PPARα nuclear receptor | hepatic expression of ACO ([3]; FIG. 5A): strong activation of hepatic expression of ACO | hepatic expression of CPT-I ([3]; FIG. 5A): smaller increase in the expression of the genes CPT-I and CPT-II | hepatic expression of CPT-II ([3]; FIG. 5A): smaller increase in the expression of the genes CPT-I and CPT-II | hepatic Apo AI expression ([3]; FIG. 5B): slight decrease in hepatic Apo AI expression | hepatic Apo CIII expression ([3]; FIG. 5B): more marked decrease in Apo CIII expression | cholesterol distribution in lipoparticles (size exclusion chromatography) ([4]; FIG. 2A): decrease in cholesterol in the different lipoparticle classes | total plasma cholesterol levels ([4]; FIG. 2B): reduction of total plasma cholesterol levels | triglyceride distribution in lipoparticles (size exclusion chromatography) ([4]; FIG. 3A): decrease in triglycerides in this lipoparticle class | plasma triglyceride levels ([4]; FIG. 3B): reduction of plasma triglyceride levels | phospholipid distribution in lipoparticles (size exclusion chromatography) ([4]; FIG. 4A): decrease in phospholipids in the different lipoparticle classes | total plasma phospholipid levels ([4]; FIG. 4B): reduction of total plasma phospholipid levels | plasma insulin levels during a glucose tolerance test ([5]; FIG. 8): used less insulin in response to the glucose injection | insulin sensitivity ([5]; concluded from glucose tolerance test): increase in insulin sensitivity | ABCA1 gene expression (ABCA1 gene expression): very strong activation of ABCA1 gene expression

CCCCCCCCCCCCCCCC(=O)OCC(COC(=O)CCCCCCCCCCCCCCC)OC(=O)CSCCCCCCCCCCCCCC [Example 4g, 1,3-dipalmitoyl-2-tetradecylthioacetylglycerol]
plasma cholesterol ([6]; FIG. 9A): decrease in circulating cholesterol and triglyceride levels | plasma triglycerides ([6]; FIG. 9B): decrease in circulating cholesterol and triglyceride levels | hepatic expression of the ACO gene [7]: marked activation of hepatic expression of the ACO gene
